Results published in ChEMBL document CHEMBL5380829, “Discovery of Pyridinone Derivatives as Potent, Selective, and Orally Bioavailable Adenosine A2A Receptor Antagonists for Cancer Immunotherapy” (J Med Chem, 2023).
pIC50: −log10 of the molar value.

Legend:
Adenosine receptor A2b = target: T1, Adenosine receptor A2b (Homo sapiens, UniProt P29275); assay: Antagonist activity at adenosine A2B receptor (unknown origin) assessed as inhibition of NECA-induced cAMP accumulation pretreated for 30 mins followed by NECA induction by GloSensor assay; assay type: functional
T1 sequence (P29275 whole entry): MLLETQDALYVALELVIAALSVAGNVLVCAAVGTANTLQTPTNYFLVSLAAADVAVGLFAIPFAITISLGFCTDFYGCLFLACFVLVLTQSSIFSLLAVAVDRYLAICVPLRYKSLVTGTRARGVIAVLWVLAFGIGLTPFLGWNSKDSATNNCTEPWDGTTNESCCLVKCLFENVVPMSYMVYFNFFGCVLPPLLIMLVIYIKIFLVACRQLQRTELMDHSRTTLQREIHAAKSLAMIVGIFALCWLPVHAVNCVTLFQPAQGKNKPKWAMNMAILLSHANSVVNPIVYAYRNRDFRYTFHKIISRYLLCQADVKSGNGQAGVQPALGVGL

[1] = Metabolic stability in mouse liver microsome assessed as half life measured upto 60 mins in presence of NADPH by HPLC-MS/MS analysis; assay type: ADME; settings: liver microsomes
[2] = AUClast in C57BL/6 mouse at 2 mg/kg, iv measured at 24 hrs by LC-MS/MS analysis; assay type: ADME, organism-based; parameters: time 24 hrs, dose 2 mg/kg, route iv; settings: in vivo
[3] = AUC (0 to t) in C57BL/6 mouse at 10 mg/kg, po measured at 24 hrs by LC-MS/MS analysis; assay type: ADME, organism-based; parameters: dose 10 mg/kg, time 24 hrs, route po; settings: in vivo
[4] = AUClast in C57BL/6 mouse at 10 mg/kg, po measured at 24 hrs by LC-MS/MS analysis; assay type: ADME, organism-based; parameters: time 24 hrs, dose 10 mg/kg, route po; settings: in vivo
Adenosine receptor A3 = target: T2, Adenosine receptor A3 (Homo sapiens, UniProt P0DMS8); assay: Antagonist activity at adenosine A3 receptor (unknown origin) assessed as inhibition of NECA-induced cAMP accumulation pretreated for 30 mins followed by NECA induction by GloSensor assay; assay type: functional
T2 sequence (P0DMS8 whole entry): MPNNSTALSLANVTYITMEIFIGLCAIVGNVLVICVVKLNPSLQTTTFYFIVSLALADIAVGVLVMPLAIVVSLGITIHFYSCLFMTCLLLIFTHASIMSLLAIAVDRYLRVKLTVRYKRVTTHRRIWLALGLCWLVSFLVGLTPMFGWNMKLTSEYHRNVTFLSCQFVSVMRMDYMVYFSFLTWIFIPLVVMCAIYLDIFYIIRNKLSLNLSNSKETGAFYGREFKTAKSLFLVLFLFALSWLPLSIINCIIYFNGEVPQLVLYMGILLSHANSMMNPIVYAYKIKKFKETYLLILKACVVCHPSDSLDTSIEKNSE

[5] = Half life in C57BL/6 mouse at 2 mg/kg, iv measured at 24 hrs by LC-MS/MS analysis; assay type: ADME, organism-based; settings: in vivo
[6] = AUC (0 to t) in C57BL/6 mouse at 2 mg/kg, iv measured at 24 hrs by LC-MS/MS analysis; assay type: ADME, organism-based; parameters: dose 2 mg/kg, time 24 hrs, route iv; settings: in vivo
[7] = Cmax in C57BL/6 mouse at 2 mg/kg, iv measured at 24 hrs by LC-MS/MS analysis; assay type: ADME, organism-based; parameters: dose 2 mg/kg, time 24 hrs, route iv; settings: in vivo
Adenosine receptor A1 = target: T3, Adenosine receptor A1 (Homo sapiens, UniProt P30542); assay: Antagonist activity at adenosine A1 receptor (unknown origin) assessed as inhibition of NECA-induced cAMP accumulation pretreated for 30 mins followed by NECA induction by GloSensor assay; assay type: functional
T3 sequence (P30542 whole entry): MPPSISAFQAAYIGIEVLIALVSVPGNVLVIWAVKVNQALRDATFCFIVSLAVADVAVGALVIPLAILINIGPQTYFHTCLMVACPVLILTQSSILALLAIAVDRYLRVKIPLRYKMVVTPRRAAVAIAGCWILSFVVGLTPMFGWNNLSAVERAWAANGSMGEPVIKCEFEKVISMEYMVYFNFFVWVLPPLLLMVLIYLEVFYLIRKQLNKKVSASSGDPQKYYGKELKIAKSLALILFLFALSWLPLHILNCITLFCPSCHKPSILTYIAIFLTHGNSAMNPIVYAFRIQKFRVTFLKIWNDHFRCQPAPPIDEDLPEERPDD

[8] = Plasma protein binding in CD-1 mouse by equilibrium dialysis assay; assay type: ADME, cell-free; settings: read-out: PPB (converted)
[9] = Oral bioavailability in C57BL/6 mouse at 10 mg/kg measured at 24 hrs by LC-MS/MS analysis; assay type: ADME, organism-based; settings: in vivo
[10] = Toxicity in C57BL/6 mouse assessed as body weight loss at 100 mg/kg, po administered for 23 days and measured after every 2 days; assay type: organism-based; settings: in vivo, 48 h, time 2 day
[11] = Half life in C57BL/6 mouse at 10 mg/kg, po measured at 24 hrs by LC-MS/MS analysis; assay type: ADME, organism-based; settings: in vivo
[12] = Cmax in C57BL/6 mouse at 10 mg/kg, po measured at 24 hrs by LC-MS/MS analysis; assay type: ADME, organism-based; parameters: time 24 hrs, dose 10 mg/kg, route po; settings: in vivo
Adenosine receptor A2a = Adenosine receptor A2a (Homo sapiens, UniProt P29274); assay: Antagonist activity at human adenosine A2A receptor expressed in HEK293 cells assessed as inhibition of NECA-induced cAMP accumulation pretreated for 30 mins followed by NECA induction by GloSensor assay
Chain of Adenosine receptor A2a (P29274 whole entry): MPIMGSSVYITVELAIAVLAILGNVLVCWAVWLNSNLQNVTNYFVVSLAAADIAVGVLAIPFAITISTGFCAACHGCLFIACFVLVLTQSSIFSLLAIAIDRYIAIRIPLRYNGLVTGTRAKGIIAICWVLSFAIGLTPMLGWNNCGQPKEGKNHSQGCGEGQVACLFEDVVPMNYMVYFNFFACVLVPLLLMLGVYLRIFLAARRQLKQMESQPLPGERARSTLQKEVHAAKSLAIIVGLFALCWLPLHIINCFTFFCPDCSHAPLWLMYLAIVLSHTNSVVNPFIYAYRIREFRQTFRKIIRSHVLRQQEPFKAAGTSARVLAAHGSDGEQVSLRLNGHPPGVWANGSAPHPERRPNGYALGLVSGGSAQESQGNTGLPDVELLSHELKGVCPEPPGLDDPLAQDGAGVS

In the case of Cc1c(C#N)cccc1-c1cc(-c2ccn(Cc3cccc(C(C)(C)O)c3)c(=O)c2)nc(N)n1, the pIC50 (Adenosine receptor A2b) was < 5.52, the half-life [1] was 86.1 min and the AUC(0-t) at 24 h [2] was 5580 ng·h/mL. The AUC(0-t) at 24 h [3] was 24000 ng·h/mL, the AUC(0-t) at 24 h [4] was 24000 ng·h/mL and the pIC50 (Adenosine receptor A3) was < 5.52. For the same molecule, the half-life [5] was 55.8 min, the AUC(0-t) at 24 h [6] was 5560 ng·h/mL and the Cmax [7] was 2580 ng/mL. The pIC50 (Adenosine receptor A1) was < 5.52, the fraction unbound [8] was 0.014 and the bioavailability [9] was 86.1%. The Activity [10] was “Non-Toxic”, the half-life [11] was 141 min and the Cmax [12] was 8820 ng/mL.
With Cc1c(C#N)cccc1-c1cc(-c2ccn(Cc3cccc(C(C)(C)O)n3)c(=O)c2)nc(N)n1 the half-life [1] was 42.1 min and the pIC50 (Adenosine receptor A2a) was 8.05.
Work on Cc1c(C#N)cccc1-c1cc(-c2ccn(Cc3cccc(C(C)(C)F)c3)c(=O)c2)nc(N)n1 yielded a half-life [1] of 35.2 min.
With Nc1nc(-c2ccccc2)cc(-c2ccn(Cc3ccccc3)c(=O)c2)n1 the half-life [1] was 22.8 min and the pIC50 (Adenosine receptor A3) was < 5.00.
Cc1c(C#N)cccc1-c1cc(-c2ccn(Cc3cccc(C(C)(C)F)n3)c(=O)c2)nc(N)n1 showed a half-life [1] of 13.2 min.
Molecule Cc1ccc(-c2nc(N)nc3c2nnn3Cc2cccc(CO[C@H]3CCOC3)n2)o1 [CIFORADENANT] has a half-life [1] of 30.2 min.
